Laboratory results as given in paper PMC5823406, “Vehicle development, pharmacokinetics and toxicity of the anti-invasive agent 4-fluoro-3’,4’,5’-trimethoxychalcone in rodents” (PLoS ONE, 2018).

Key:
mouse = tested on: mouse; parameters: method as in PMID 4962802, PMID 6379027; details: PO; cited from earlier work
Whole blood stability = assay type: in vitro ADME, rat; details: fresh whole blood, male Sprague-Dawley rat blood, read-out: Compound remaining (% of 0 min)
Experimental: C16 (1 μM) or vehicle (DMSO) were incubated with fresh rat blood (Sprague Dawley, male) at 37°C at 5 time points in duplicate over a 120-min period. The final DMSO concentration in the incubation was 0.25%. Reactions were terminated following 0, 15, 30, 60 and 120 min by acetonitrile containing internal standard. The sampling plate was centrifuged (3000 rpm, 45 min, 4 °C) and the supernatants from each time point analyzed for parent compound by HPLC-MS/MS. The percentage of parent compound remaining at each time point relative to the 0-min sample was then calculated from HPLC-MS/MS peak area ratios (compound peak area/internal standard peak area).
C. Stability and metabolism
For details on ADME experiments not included underneath , please consult ref. [1].
C.A. Whole blood stability
Column: Kinetex XB-C18 column, 2.6 µm (150 x2.1 mm)
Mobile phase A: H2O + 0.1% v/v Formic Acid
Mobile phase B: MeCN + 0.1% v/v Formic Acid
Autosampler syringe volume: 100 µL
Weak wash: MeOH:H2O 1:9 v/v
Strong wash: MeOH:H2O 95:5 v/v
Table K. Gradient program.
Mass spectrometric conditions
Model: AB Sciex API5500 QTrap
Mode: Multiple ion monitoring (MIM)
Table L. MIM (parent to parent transitions).
The areas and percentages for the parent and metabolites have been calculated using MIM data where parent to parent transitions have been used, and assume that each metabolite has the same point of ionisation and the sensitivity of the metabolite has not been affected by the biotransformation.

SMILES | LD50 (mouse) | remaining at 15 min, 1 µM (Whole blood stability; 15 min) | remaining at 30 min, 1 µM (Whole blood stability; 30 min) | remaining at 60 min, 1 µM (Whole blood stability; 60 min) | remaining at 120 min, 1 µM (Whole blood stability; 120 min)
C[S+](C)[O-] [DMSO, dimethyl sulfoxide] | 21000 to 28000 mg/kg |  |  |  | 
COc1ccc([C@@H]2Sc3ccccc3N(CCN(C)C)C(=O)[C@@H]2OC(C)=O)cc1 [diltiazem, reference compound] |  | 99.9% | 91.1% | 74.3% | 45.5%
